In patent publication US8470786B2, “Pyrroloquinolinyl-pyrrolidine-2,5-dione compositions and methods for preparing and using same” (ArQule, Inc., priority 2010, dated 2013):

Key:
HT29 = experiment: Cell proliferation analysis (MTS assay); format: cell-based; conditions: Homo sapiens, HT-29, HT29 cells, treated for 72 hours, read-out: Antiproliferative activity (HT29 MTS GI50)
Protocol: Cell survival was determined by the MTS assay. Briefly, cells were plated in a 96-well plate at 2,000-10,000 cells per well, cultured for 24 hours in complete growth medium, and then treated with various drugs and drug combinations for 72 hours. MTS was added and incubated for 4 hour, followed by assessment of cell viability using the microplate reader at 570 nm. Data were normalized to untreated controls and analyzed.

c-Met = c-Met (Homo sapiens, UniProt P08581); experiment: c-Met autophosphorylation inhibition assay (biochemical); conditions: method per J. Biol. Chem. 286(23), 20666-20676
Chain of c-Met (P08581 25-1390): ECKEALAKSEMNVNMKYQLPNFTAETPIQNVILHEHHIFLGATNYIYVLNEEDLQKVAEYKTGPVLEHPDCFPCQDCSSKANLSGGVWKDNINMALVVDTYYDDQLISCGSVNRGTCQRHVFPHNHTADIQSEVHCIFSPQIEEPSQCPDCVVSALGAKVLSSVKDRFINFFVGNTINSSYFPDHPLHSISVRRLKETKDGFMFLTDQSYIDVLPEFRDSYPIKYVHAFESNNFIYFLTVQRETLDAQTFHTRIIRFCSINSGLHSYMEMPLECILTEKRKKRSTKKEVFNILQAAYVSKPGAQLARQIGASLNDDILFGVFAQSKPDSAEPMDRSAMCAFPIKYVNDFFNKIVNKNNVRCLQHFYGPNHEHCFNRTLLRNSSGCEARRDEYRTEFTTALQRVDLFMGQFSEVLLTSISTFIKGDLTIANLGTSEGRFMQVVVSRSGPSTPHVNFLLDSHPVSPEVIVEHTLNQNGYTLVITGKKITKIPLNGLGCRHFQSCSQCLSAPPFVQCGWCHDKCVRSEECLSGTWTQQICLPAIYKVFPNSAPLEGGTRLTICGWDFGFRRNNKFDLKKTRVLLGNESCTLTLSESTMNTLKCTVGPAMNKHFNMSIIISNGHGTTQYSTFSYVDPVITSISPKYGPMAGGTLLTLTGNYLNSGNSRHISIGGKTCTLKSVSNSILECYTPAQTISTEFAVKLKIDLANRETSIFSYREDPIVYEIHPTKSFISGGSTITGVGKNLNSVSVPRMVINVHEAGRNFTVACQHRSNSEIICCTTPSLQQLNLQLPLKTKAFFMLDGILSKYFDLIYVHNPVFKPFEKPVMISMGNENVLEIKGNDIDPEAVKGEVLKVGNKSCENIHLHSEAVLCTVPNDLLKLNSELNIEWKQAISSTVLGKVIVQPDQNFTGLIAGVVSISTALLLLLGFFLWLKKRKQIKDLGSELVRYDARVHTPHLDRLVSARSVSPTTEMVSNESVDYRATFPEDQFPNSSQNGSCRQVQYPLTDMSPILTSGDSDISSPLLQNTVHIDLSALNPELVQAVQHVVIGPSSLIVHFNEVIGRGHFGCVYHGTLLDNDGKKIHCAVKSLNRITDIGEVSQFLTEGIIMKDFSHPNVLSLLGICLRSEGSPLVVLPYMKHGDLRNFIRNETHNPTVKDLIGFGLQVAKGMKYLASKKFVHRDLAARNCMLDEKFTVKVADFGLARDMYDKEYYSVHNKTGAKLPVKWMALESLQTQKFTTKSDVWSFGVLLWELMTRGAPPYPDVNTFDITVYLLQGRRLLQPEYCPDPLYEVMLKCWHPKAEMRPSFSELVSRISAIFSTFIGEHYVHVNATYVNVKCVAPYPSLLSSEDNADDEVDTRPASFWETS
Protocol: c-Met Autophosphorylation Inhibition assay was carried out according to Journal of Biological Chemistry 286(23), 20666-20676 (Jun. 10, 2010).

GI50 (HT29) [µM] | IC50 (c-Met) [µM] | melting point [°C] | SMILES
0.68 ± 0.05 | 1.6 ± 0.25 |  | O=C1CCn2cc([C@@H]3C(=O)NC(=O)[C@H]3c3c[nH]c4ccccc34)c3cccc1c32 (racemic) [Compound 8, (3R,4R)-3-(1H-indol-3-yl)-4-(6-oxo-5,6-dihydro-4H-pyrrolo[3,2,1-ij]quinolin-1-yl)pyrrolidine-2,5-dione]
3.1 ± 0.24 | 1 |  | O=C1NC(=O)[C@@H](c2cn3c4c(cccc24)CCC3=O)[C@@H]1c1c[nH]c2ccccc12 (racemic) [Compound 9, (3R,4R)-3-(1H-indol-3-yl)-4-(4-oxo-5,6-dihydro-4H-pyrrolo[3,2,1-ij]quinolin-1-yl)pyrrolidine-2,5-dione]
75 ± 33 | > 30 |  | O=C1NC(=O)[C@H](c2cn3c4c(cccc24)[C@@H](O)CC3)[C@H]1c1c[nH]c2ccccc12 [Compound 13, (3S,4S)-3-((S)-6-hydroxy-5,6-dihydro-4H-pyrrolo[3,2,1-ij]quinolin-1-yl)-4-(1H-indol-3-yl)pyrrolidine-2,5-dione]
 |  | 167 to 170 | O=C1NC(=O)[C@@H](c2cn3c4c(cccc24)CCC3)[C@@H]1c1c[nH]c2cc(O)ccc12 (racemic) [Compound 1, (rac)-trans-3-(5,6-dihydro-4H-pyrrolo[3,2,1-ij]quinolin-1-yl)-4-(6-hydroxy-1H-indol-3-yl)pyrrolidine-2,5-dione]
1.5 ± 0.21 | 2 ± 0.21 |  | O=C1NC(=O)[C@@H](c2cn3c4c(cccc24)[C@@H](O)CC3)[C@@H]1c1c[nH]c2ccccc12 [Compound 10, (3R,4R)-3-((S)-6-hydroxy-5,6-dihydro-4H-pyrrolo[3,2,1-ij]quinolin-1-yl)-4-(1H-indol-3-yl)pyrrolidine-2,5-dione]
 |  | 153 to 155 | O=C1NC(=O)[C@@H](c2cn3c4c(cccc24)C(O)CC3)[C@@H]1c1c[nH]c2ccccc12 (mixture of isomers) [Compound 3, (rac)-trans-3-(6-hydroxy-5,6-dihydro-4H-pyrrolo[3,2,1-ij]quinolin-1-yl)-4-(1H-indol-3-yl)pyrrolidine-2,5-dione]
3.7 ± 0.42 | 2.6 ± 0.07 |  | O=C1NC(=O)[C@@H](c2cn3c4c(cccc24)[C@H](O)CC3)[C@@H]1c1c[nH]c2ccccc12 [Compound 11, (3R,4R)-3-((R)-6-hydroxy-5,6-dihydro-4H-pyrrolo[3,2,1-ij]quinolin-1-yl)-4-(1H-indol-3-yl)pyrrolidine-2,5-dione]
31 ± 7.1 | > 30 |  | O=C1NC(=O)[C@H](c2cn3c4c(cccc24)[C@H](O)CC3)[C@H]1c1c[nH]c2ccccc12 [Compound 12, (3S,4S)-3-((R)-6-hydroxy-5,6-dihydro-4H-pyrrolo[3,2,1-ij]quinolin-1-yl)-4-(1H-indol-3-yl)pyrrolidine-2,5-dione]
